Source: patent US12583839B2, “PD-L1 antagonist compound” (ADLAI NORTYE BIOPHARMA CO., LTD., priority 2019, dated 2026)
pEC50: −log10 of the molar value.

molecular target: T1, PD-1/PD-L1 (Homo sapiens, UniProt Q9NZQ7); experiment: Detection of biological activity of PD-1/PD-L1 signaling inhibition at the cellular level (NFAT luciferase reporter, PD-1/NFAT-Reporter-Jurkat cells co-cultured with TCR activator/PD-L1-CHO cells); type: cell-based; conditions: PD-1/NFAT-Reporter-Jurkat + TCR activator/PD-L1-CHO co-culture, 6 hours; Atezolizumab as positive control
T1 construct: 60535 (PD-1/NFAT-Reporter-Jurkat); host or cells: CHO cells expressing PD-L1; Jurkat cells expressing PD-1
Outline: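 CHO cells expressing PD-L1 and a TCR activator were seeded overnight at 37° C, pre-treated with compound for 30 minutes, then co-cultured 6 hours with Jurkat cells carrying PD-1 and an NFAT-luciferase reporter. Luminescence was read, and inhibition % was normalised between 0.1% DMSO and about 10 nM atezolizumab controls.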

T1 sequence (Q9NZQ7 19-290): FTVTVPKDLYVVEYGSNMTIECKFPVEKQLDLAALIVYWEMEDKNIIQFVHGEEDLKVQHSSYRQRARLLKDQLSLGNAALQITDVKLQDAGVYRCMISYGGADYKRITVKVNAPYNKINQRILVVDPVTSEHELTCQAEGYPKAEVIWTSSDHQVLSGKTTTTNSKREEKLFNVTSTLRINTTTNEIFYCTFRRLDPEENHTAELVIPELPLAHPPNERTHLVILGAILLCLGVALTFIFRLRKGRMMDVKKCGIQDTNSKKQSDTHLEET

| SMILES | pEC50 |
| --- | --- |
| CCOc1cc(Cn2ncc3c(-c4cccc(-c5ccc(CNC[C@@H]6CCC(=O)N6)c(OC)c5)c4Cl)cccc32)c(Cl)cc1CN(C)C[C@H]1CC[C@H](C(=O)O)CC1 [Compound 124] | 7.04 |
| COc1cc(Cn2nc(F)c3c(-c4cccc(-c5ccc(CNC[C@@H]6CCC(=O)N6)cc5)c4Cl)cccc32)c(Cl)cc1CN[C@@H](CO)C(=O)O [Compound 83] | 7.04 |
| COc1cc(Cn2ncc3c(-c4cccc(-c5cc(F)c(CNC[C@@H]6CCC(=O)N6)c(OC)c5)c4Cl)cccc32)c([N+](=O)[O-])cc1CN(C)[C@H]1C[C@H](C(=O)O)C1 [Compound 143] | 7.51 |
| COc1cc(Cn2ncc3c(-c4cccc(-c5cnc(CNC[C@@H]6CCC(=O)N6)c(OC)n5)c4C)cccc32)c(Cl)cc1CN(C)C12CCC(C(=O)O)(CC1)CC2 [Compound 170] | 6.58 |

Continued by rising pEC50, values first:

| pEC50 | SMILES |
| --- | --- |
| 6.27 | COc1cc(Cn2ncc3c(-c4cccc(-c5ccc(CNC[C@@H]6CCC(=O)N6)cc5)c4Cl)cccc32)c(Cl)cc1CN1CCC[C@H]1C(=O)O [Compound 43] |
| 6.33 | COc1cc(Cn2ncc3c(-c4cccc(-c5ccc(CNC[C@@H]6CCC(=O)N6)cc5)c4Cl)cccc32)c(Cl)cc1CNCc1nnn[nH]1 [Compound 85] |
| 7.04 | COc1cc(-c2cccc(-c3cccc4c3cnn4Cc3cc(OC)c(CN4CC[C@@H](C(=O)O)C4)cc3Cl)c2Cl)ccc1CNC[C@@H]1CCC(=O)N1 [Compound 52] |
| 7.34 | COc1cc(-c2cccc(-c3cccc4c3cnn4Cc3cc(OC)c(CN(C)[C@H]4C[C@@H](C(=O)O)C4)cc3Cl)c2Cl)ccc1CNC[C@@H]1CCC(=O)N1 [Compound 104] |
